According to the supplement of paper PMC10307832:

How the values were obtained:
Assay in all cases: relative viability (nuclei count vs DMSO), 5 days (fraction); higher = more cells survive
Venetoclax + Decitabine = compound: CC1(C)CCC(CN2CCN(c3ccc(C(=O)NS(=O)(=O)c4ccc(NCC5CCOCC5)c([N+](=O)[O-])c4)c(Oc4cnc5[nH]ccc5c4)c3)CC2)=C(c2ccc(Cl)cc2)C1 [Venetoclax] + Nc1ncn([C@H]2C[C@H](O)[C@@H](CO)O2)c(=O)n1 [Decitabine] (partner 2 µM)
Outline: (§1)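 Relative viability was taken as the ratio of nuclei in treated wells to nuclei in vehicle wells. Lung cancer cell lines in 1536-well plates received compounds by pin tool one day after seeding, either one drug alone or a fixed anchor-drug dose plus five library-drug doses (not always all listed) in √10 steps. Nuclei were counted on 4× images after 5 days of treatment, and values are medians of duplicate plates.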

Selumetinib + AZD7762 = compound: Cn1cnc2c(F)c(Nc3ccc(Br)cc3Cl)c(C(=O)NOCCO)cc21 [Selumetinib] + NC(=O)Nc1cc(-c2cccc(F)c2)sc1C(=O)N[C@H]1CCCNC1 [AZD7762] (partner 0.2 µM)
Outline: as §1

Selumetinib + Trametinib = compound: Cn1cnc2c(F)c(Nc3ccc(Br)cc3Cl)c(C(=O)NOCCO)cc21 [Selumetinib] + CC(=O)Nc1cccc(-n2c(=O)n(C3CC3)c(=O)c3c(Nc4ccc(I)cc4F)n(C)c(=O)c(C)c32)c1 [Trametinib] (partner 0.02 µM)
Outline: as §1

Venetoclax + Pictilisib = compound: CC1(C)CCC(CN2CCN(c3ccc(C(=O)NS(=O)(=O)c4ccc(NCC5CCOCC5)c([N+](=O)[O-])c4)c(Oc4cnc5[nH]ccc5c4)c3)CC2)=C(c2ccc(Cl)cc2)C1 [Venetoclax] + CS(=O)(=O)N1CCN(Cc2cc3nc(-c4cccc5[nH]ncc45)nc(N4CCOCC4)c3s2)CC1 [Pictilisib] (partner 1 µM)
Outline: as §1

| Cell Line | relative viability (Venetoclax + Decitabine; first compound 0.01 µM) | relative viability (Venetoclax + Decitabine; first compound 0.03162 µM) | relative viability (Venetoclax + Decitabine; first compound 0.1 µM) | relative viability (Venetoclax + Decitabine; first compound 0.3162 µM) | relative viability (Venetoclax + Decitabine; first compound 1 µM) | relative viability (Selumetinib + AZD7762; first compound 0.02 µM) | relative viability (Selumetinib + AZD7762; first compound 0.06325 µM) | relative viability (Selumetinib + AZD7762; first compound 0.2 µM) | relative viability (Selumetinib + AZD7762; first compound 0.6325 µM) | relative viability (Selumetinib + Trametinib; first compound 0.02 µM) | relative viability (Selumetinib + Trametinib; first compound 0.06325 µM) | relative viability (Selumetinib + Trametinib; first compound 0.2 µM) | relative viability (Selumetinib + Trametinib; first compound 0.6325 µM) | relative viability (Venetoclax + Pictilisib; first compound 0.01 µM) | relative viability (Venetoclax + Pictilisib; first compound 0.03162 µM) | relative viability (Venetoclax + Pictilisib; first compound 0.1 µM) | relative viability (Venetoclax + Pictilisib; first compound 0.3162 µM) | relative viability (Venetoclax + Pictilisib; first compound 1 µM) |
| --- | --- | --- | --- | --- | --- | --- | --- | --- | --- | --- | --- | --- | --- | --- | --- | --- | --- | --- |
| 201T | 0.774 | 0.834 | 0.792 | 0.82 | 0.825 | 0.602 | 0.615 | 0.554 | 0.6 | 0.777 | 0.698 | 0.723 | 0.735 | 0.635 | 0.653 | 0.659 | 0.73 | 0.683 |
| A549 | 0.22 | 0.325 | 0.159 | 0.214 | 0.274 | – | – | – | – | – | – | – | – | 0.48 | 0.542 | 0.564 | 0.493 | 0.482 |
| A-427 | 0.54 | 0.546 | 0.55 | 0.54 | 0.559 | 0.7 | 0.613 | 0.628 | 0.618 | 0.731 | 0.781 | 0.812 | 0.794 | 0.651 | 0.809 | 0.588 | 0.834 | 0.705 |
| ABC-1 | 1.07 | 1.24 | 1.02 | 1.12 | 1.24 | 0.871 | 0.591 | 0.66 | 0.578 | – | – | – | – | 0.786 | 0.778 | 0.759 | 0.71 | 0.699 |
| BEN | 0.747 | 0.721 | 0.737 | 0.653 | 0.673 | 0.587 | 0.624 | 0.634 | 0.736 | 1.06 | 1.07 | 1.14 | 1 | 0.738 | 0.637 | 0.518 | 0.557 | 0.546 |
| CAL-12T | – | – | – | – | – | 0.64 | 0.574 | 0.566 | 0.568 | 0.282 | 0.343 | 0.285 | 0.298 | 0.36 | 0.609 | 0.489 | 0.419 | 0.396 |
| COR-L23 | 0.458 | 0.478 | 0.444 | 0.454 | 0.39 | – | – | – | – | 0.555 | 0.469 | 0.586 | 0.511 | 0.676 | 0.82 | 0.732 | 0.825 | 0.676 |
| COR-L 105 | 0.581 | 0.589 | 0.694 | 0.76 | 0.652 | – | – | – | – | 0.435 | 0.427 | 0.345 | 0.468 | 0.409 | 0.526 | 0.367 | 0.406 | 0.468 |
| Calu-6 | – | – | – | – | – | – | – | – | – | – | – | – | – | 0.801 | 0.89 | 0.879 | 0.857 | 0.882 |
| ChaGo-K-1 | 0.465 | 0.503 | 0.488 | 0.545 | 0.519 | 0.865 | 0.845 | 0.905 | 0.899 | 0.908 | 0.891 | 0.897 | 0.92 | 0.91 | 0.998 | – | 0.825 | 0.727 |
| EBC-1 | – | – | – | – | – | – | – | – | – | – | – | – | – | 0.436 | 0.59 | 0.348 | 0.339 | 0.406 |
| EKVX | 0.33 | 0.327 | 0.317 | 0.392 | 0.35 | 0.713 | 0.594 | 0.613 | 0.502 | 0.308 | 0.325 | 0.344 | 0.32 | 0.451 | 0.432 | 0.423 | 0.469 | 0.395 |
| EMC-BAC-2 | 0.983 | 0.989 | 0.981 | 1.02 | 0.956 | 1.16 | 1.11 | 0.913 | 1.08 | 0.909 | 0.833 | 0.937 | 0.774 | 0.459 | 0.56 | 0.452 | 0.544 | 0.535 |
| EPLC-272H | 0.391 | 0.378 | 0.328 | 0.371 | 0.445 | 0.24 | 0.19 | 0.281 | 0.476 | 0.275 | 0.277 | 0.263 | 0.259 | – | 0.3 | 0.327 | 0.403 | 0.33 |
| H3255 | 0.657 | 0.582 | 0.496 | 0.635 | 0.597 | 0.827 | 0.945 | 0.821 | 0.935 | 0.586 | 0.583 | 0.601 | 0.54 | 0.47 | 0.527 | 0.457 | 0.486 | 0.482 |
| HARA | 0.62 | 0.633 | – | 0.72 | 0.606 | 0.38 | 0.34 | 0.341 | 0.152 | 0.531 | 0.596 | 0.787 | 0.448 | 0.55 | 0.386 | 0.396 | 0.451 | 0.324 |
| HCC-15 | 0.519 | 0.699 | 0.611 | 0.611 | 0.543 | 0.996 | 0.808 | 1.01 | 0.631 | 0.403 | 0.426 | 0.332 | 0.333 | 0.652 | 0.804 | 0.629 | 0.706 | 0.701 |
| HCC-44 | 0.938 | 0.919 | 0.87 | 0.892 | 0.949 | 1.07 | 1.08 | 1.02 | 1.16 | 1.03 | 0.993 | 0.999 | 1.14 | 0.63 | 0.595 | 0.596 | 0.578 | 0.608 |
| HCC-78 | 0.689 | 0.744 | 0.786 | 0.652 | 0.58 | 0.576 | 0.581 | 0.526 | 0.477 | 0.785 | 0.643 | 0.792 | 0.698 | 0.179 | 0.244 | 0.187 | 0.206 | 0.238 |
| HCC-366 | 0.354 | 0.368 | 0.327 | 0.366 | 0.382 | 0.27 | 0.324 | 0.253 | 0.166 | 0.365 | 0.316 | 0.332 | 0.329 | 0.193 | 0.154 | 0.0731 | 0.184 | 0.138 |
